Article PMC8608967, “KDS2010, a Newly Developed Reversible MAO-B Inhibitor, as an Effective Therapeutic Candidate for Parkinson’s Disease” (Neurotherapeutics, 2021)

Tests used:
[1] = H2O2 scavenging capacity test (Amplex red/HRP); settings: 10 min incubation with H2O2 at RT
Protocol: To determine the H2O2 scavenging capacity of the test compound, H2O2 concentration was measured using the modified Amplex red/horseradish peroxidase (HRP) detection method as described previously. Briefly, a H2O2 solution was incubated with the test compound for 10 min at room temperature (RT), and then the reaction solution containing 20 mM Amplex red and 200 U/mL HRP was added. The absorbance was measured at 570 nm using a microplate reader. The H2O2 scavenging capacities were compared to a blank negative control and to the known H2O2 scavenger epigallocatechin gallate (EGCG) as a positive control.

[2] = system: MPTP-induced PD mouse model; assay: MPTP mouse model: vertical grid test and coat hanger test; assay type: in vivo; settings: MPTP mice
Protocol: Group allocation and outcome assessment, but not the conduct of experiments and data analysis, were performed in a blinded manner. Throughout the study, confounders were not controlled. An acclimation period of 7 days was allowed for animals to stabilize in a new environment before model induction. […] Treatment drugs were dissolved in 100 μL of water and total dose (in mg) was calculated according to individual body weight (in kg).
The MPTP model was established using the acute regimen of four intraperitoneal (i.p.) injections of MPTP-HCl (M0896, Sigma Aldrich, 2 mg/mL in saline, 20 mg/kg for one injection) at 2-h intervals.
Motor deficits of the MPTP-induced PD mouse model were assessed using the vertical grid test as described in the previous study [23]. Briefly, after 2 days of habituation to the testing apparatus, individual mice were gently placed 3 cm from the top, facing upward, and allowed to turn around and climb down. We also performed a coat hanger test as described [24–26]. Briefly, a mouse was gently hung on the middle of a coat hanger and allowed to ascend to the top. Performance was graded as follows: 0, falling off the hanger within 20 s; 1, moving to the side-bar of the hanger; 2, reaching the side-bar of the hanger; 3, climbing the side-bar of the hanger; 4, moving to the top of the hanger; 5, climbing and reaching the safe zone. The test was performed twice and each trial lasted a maximum of 3 min.

[3] = system: A53T mutant α-synuclein-overexpressing PD model rats; assay: A53T mutant α-synuclein rat model: stepping test and cylinder test; assay type: in vivo; settings: 10 mg/kg/day for 15 days
Protocol: (§1) Throughout the study, confounders were not controlled.
Motor dysfunction of A53T α-synuclein model rats was tested using the forelimb-use asymmetry test (cylinder test). Briefly, animals were placed in a transparent Plexiglas cylinder (20 cm in diameter and 30 cm in height) for 2 min to assess the frequency of ipsilesional and contralesional forelimb usage against the cylinder wall for supporting an upright body posture. The test score was calculated as the ratio of ipsilateral usage frequency to total ipsilateral plus contralateral usage frequency.

[4] = system: A53T mutant α-synuclein-overexpressing PD model rats; assay: A53T mutant α-synuclein rat model: TH staining; assay type: in vivo; settings: 10 mg/kg/day for 15 days starting 3 weeks after virus injection
From the text: as §1

[5] = Pharmacokinetic study in cynomolgus monkeys (N118029); assay type: in vivo, cynomolgus monkey (Macaca fascicularis); settings: male, cynomolgus monkey, plasma, po
Protocol: All animals were at least 24 months old. […] Males and females were assigned to treatment groups in a stratified manner using the Pristima System based on most recent body weight. Clinical signs, including mortality, moribundity, general appearance, and behavioral changes, were recorded with date, time, and duration. Body weight was measured prior to the first KDS2010 dose. For oral administration, KDS2010 was dissolved in water. In total, 42 monkeys were administered KDS2010 and ultimately sacrificed for autopsy.
In the pharmacokinetic study (N118029), six male monkeys were assigned to 2 groups receiving either 10 or 30 mg/kg oral KDS2010. […] Blood samples were mixed gently, stored in a wet-ice cryo-rack, and centrifuged (approximately 13,200 rpm, 5 min, 4°C) to obtain plasma. The separated plasma was aliquoted into polypropylene tubes and stored frozen until analysis.

[6] = Toxicokinetics in 4-week repeated-dose study in cynomolgus monkeys (G218027); assay type: in vivo, cynomolgus monkey (Macaca fascicularis)
Protocol: In the repeated 4-week oral administration toxicity with 2-week recovery and toxicokinetic test (G218027), monkeys were assigned to 4 groups of 3 males and 3 females. Each group was orally administered KDS2010 at 0, 10, 20, or 40 mg/kg/day once a day for 4 weeks. Toxicity tests were conducted as described for study G217013. For toxicokinetic measurements, blood samples were collected pre-dose (time 0) and at 1, 2, 4, 6, 8, 10, and 24 h after oral administration on the first day (day 1) and the last day (week 4; day 28) of dosing.
A non-compartmental analysis module in Phoenix® WinNonlin® (version 6.4) (Certara Inc., CA, USA) was used to calculate pharmacokinetic (PK) parameters. Systemic exposure to KDS2010 was calculated by applying the linear trapezoidal rule to the area under the plasma concentration–time curve from time zero to the last quantifiable time point (AUClast), and the maximum observed peak plasma concentration (Cmax) and the time to reach Cmax (Tmax) were determined based on the observed data. The apparent terminal elimination half-life (t1/2) was calculated from the apparent terminal elimination rate constant using the formula t1/2 = 0.693/kel.

[7] = biological target: T1, human recombinant MAO-B (hMAO-B) (Homo sapiens, UniProt P27338); settings: cited from earlier work
T1 construct: purchased Sigma Aldrich
T1 sequence (P27338 1-520): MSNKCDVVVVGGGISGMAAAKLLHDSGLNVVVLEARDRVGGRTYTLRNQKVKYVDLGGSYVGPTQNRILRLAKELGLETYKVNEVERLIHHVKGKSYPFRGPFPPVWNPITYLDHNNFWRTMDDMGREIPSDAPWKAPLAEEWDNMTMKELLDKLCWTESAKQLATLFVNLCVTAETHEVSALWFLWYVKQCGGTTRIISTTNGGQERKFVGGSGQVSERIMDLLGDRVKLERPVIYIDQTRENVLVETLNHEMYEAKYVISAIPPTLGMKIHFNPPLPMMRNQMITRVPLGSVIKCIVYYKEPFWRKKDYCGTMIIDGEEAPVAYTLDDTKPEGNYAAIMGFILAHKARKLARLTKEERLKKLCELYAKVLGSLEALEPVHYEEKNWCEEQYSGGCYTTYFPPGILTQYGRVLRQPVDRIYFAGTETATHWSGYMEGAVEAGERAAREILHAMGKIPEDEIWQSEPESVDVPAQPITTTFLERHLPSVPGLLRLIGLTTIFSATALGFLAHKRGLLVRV

[8] = biological target: T2, human recombinant MAO-A (hMAO-A) (Homo sapiens, UniProt P21397); settings: ref Park, JH. et al. Science Advances. 5(3), eaav0136 (2019), read-out: Inhibition (IC50) MAO-A; cited from earlier work
T2 construct: purchased Sigma Aldrich
T2 sequence (P21397 1-527): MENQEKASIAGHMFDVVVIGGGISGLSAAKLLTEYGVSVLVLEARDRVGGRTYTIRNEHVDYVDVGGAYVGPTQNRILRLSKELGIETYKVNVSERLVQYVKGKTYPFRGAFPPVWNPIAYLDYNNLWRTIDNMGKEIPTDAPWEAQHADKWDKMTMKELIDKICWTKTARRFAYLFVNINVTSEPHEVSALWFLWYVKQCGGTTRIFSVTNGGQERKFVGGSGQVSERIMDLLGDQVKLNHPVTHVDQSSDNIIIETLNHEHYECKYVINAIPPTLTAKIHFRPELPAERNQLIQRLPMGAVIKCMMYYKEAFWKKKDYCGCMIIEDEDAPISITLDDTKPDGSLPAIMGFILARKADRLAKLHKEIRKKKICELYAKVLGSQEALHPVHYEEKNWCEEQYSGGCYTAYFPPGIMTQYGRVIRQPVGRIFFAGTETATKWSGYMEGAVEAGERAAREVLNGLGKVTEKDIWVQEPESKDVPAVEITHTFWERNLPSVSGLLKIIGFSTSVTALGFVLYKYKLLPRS

post-stroke recovery = system: post-stroke recovery; parameters: method as in PMID 32640227; settings: long-term treatment accompanied by rehabilitation training; cited from earlier work
6-OHDA model rats = assay: 6-OHDA rat model: stepping test, rotarod test, TH; settings: 6-OHDA rats
Protocol: Group allocation and outcome assessment, but not the conduct of experiments and data analysis, were performed in a blinded manner. Throughout the study, confounders were not controlled. An acclimation period of 7 days was allowed for animals to stabilize in a new environment before model induction. […] Treatment drugs were dissolved in 100 μL of water and total dose (in mg) was calculated according to individual body weight (in kg). […] An experiment was halted if body weight decreased by 20% or more after MPTP or 6-hydroxydopamine (6-OHDA) treatment.
Finally, the 6-OHDA model was prepared as previously described [21]. Under general anesthesia, all rats received unilateral injections of 8 μg 6-OHDA (Sigma Aldrich) in 4 μL saline/0.1% ascorbic acid into the right medial forebrain bundle (AP − 2.2 mm and L + 1.5 mm relative to the bregma, V − 8.0 mm from the dura) [19], with the tooth bar set at + 4.5 mm.
Motor deficits of 6-OHDA and A53T mutant α-synuclein model rats were assessed as previously described with slight modifications [27]. Briefly, both hind limbs and one forelimb were firmly fixed in the two hands of the experimenter, and the rat was lowered over a treadmill moving at rate of 18 cm/s such that the body remained stationary while the free forelimb was allowed to spontaneously touch the moving treadmill track for 10 s. All experimental sessions were video recorded to count the number of adjusting steps taken in the backward direction. The number of adjusting steps was averaged across four trials in each session.
In addition, impaired motor coordination of 6-OHDA model rats was examined using the rotarod test as previously described with slight modifications [28]. […] Before the first rotarod test, all rats were pre-trained until riding time reached 60 s at 10 rpm (B.S Technolab, Seoul, Korea). Each session consisted of two trials, and riding time was averaged to obtain pre-6-OHDA, 0d, 7d, and 15d results.

[9] = long-term (30-day) treatment, 10 mg/kg/day oral
[10] = post-treatment, administered 3 days after MPTP
[11] = pre-treatment, 10 mg/kg/day oral, 3 days starting 1 day before MPTP

## C[C@H](NCc1ccc(-c2ccc(C(F)(F)F)cc2)cc1)C(N)=O [Compound 18j]
[1]
  H2O2 scavenging effect: did not show any H2O2 scavenging effect
[2]; [9]
  vertical grid test: time to turn: reduced
  vertical grid test: total time: reduced
[2]; [10]
  coat hanger test: motor score: increased
  vertical grid test: rate of missed steps: significantly reduced
  vertical grid test: time to turn: significantly reduced
  vertical grid test: total time: significantly reduced
[2]; [11]
  vertical grid test: rate of missed steps: significantly reduced
  vertical grid test: time to turn: significantly reduced
  vertical grid test: total time: significantly reduced
[2]; pre-treatment, 10 mg/kg/day oral, vehicle-treated controls 1.8 ± 0.4, score 0-5
  coat hanger test: motor function score: 3.6 ± 0.5
[3]
  cylinder test: asymmetric usage of forelimbs: alleviated
  stepping test: impaired stepping behavior of the contralateral forepaw: significantly alleviated
[4]
  number of remaining TH-positive neurons in the injected SNpc: increased
  striatal TH loss: significantly reversed
[5]; 10 mg/kg
  AUC: 30600 ± 422 ng·h/mL
  Cmax: 2230 ± 143 ng/mL
[5]; 30 mg/kg
  AUC: 80800 ± 5370 ng·h/mL
  Cmax: 4850 ± 568 ng/mL
[6]; both sexes, cynomolgus monkey, plasma, po, cynomolgus monkeys, 10, 20 or 40 mg/kg/day p.o.
  Tmax: 4.72 ± 1.93 h
[6]; cynomolgus monkeys, 10, 20, 40 mg/kg/day p.o.
  dose-dependent increase of AUClast: slightly less than proportional
[7]; same binding cavity as selegiline
  mode of MAO-B inhibition: competitive inhibitor
[7]; with enantiomeric selectivity
  reversibility of MAO-B inhibition: reversible
[8]
  IC50: > 100 µM
post-stroke recovery
  post-stroke recovery: dramatically improved
6-OHDA model rats; 10 mg/kg/day for 15 days starting 17 days post-6-OHDA
  stepping test: stepping behavior deficit of the contralateral forepaw: partially but significantly improved
6-OHDA model rats; 15 days' treatment starting 17 days after 6-OHDA
  rotarod test: reduction in riding time (latency to fall): partially reversed
6-OHDA model rats; data not shown
  nigrostriatal TH loss: not reversed
